Earlier results in patent publication US4775692A, “2,5,6,7-tetranor-4,8-inter-m-phenylene PGI2 derivatives” (Toray Industries, Inc., priority 1986, dated 1988).

Experiments:
[1] = converted to 6-oxo PGF1α; cited from earlier work
gastric acid secretion = conditions: cited from earlier work
peripheral blood vessel = conditions: cited from earlier work
platelet aggregation = conditions: cited from earlier work
[2] = cited from earlier work

CCCCC[C@H](O)/C=C/[C@@H]1[C@H]2C/C(=C/CCCC(=O)O)O[C@H]2C[C@H]1O [PGI2, Prostaglandin I2]
stability in neutral aqueous solutions [1]: extremely unstable | gastric acid secretion-inhibiting activity (gastric acid secretion): potent | peripheral blood vessel-dilating activity (peripheral blood vessel): potent | platelet aggregation-inhibiting activity (platelet aggregation): potent | duration of physiological activities in vivo [2]: only short duration | stability in vivo [2]: unstable in vivo
